Laboratory results taken from patent publication US7888338B2, “7-(2-cyclohexylidene-ethylidene)-spiro[4.5]decanes” (K.U. Leuven Research & Development, priority 2004, dated 2011).

Legend:
MCF-7 cells = assay: Measurement of cell proliferation, breast carcinoma cells MCF-7, [3H]thymidine incorporation; type: cell-based; conditions: cell proliferation ([3H]thymidine incorporation), relative to control 1α,25(OH)2D3 = 100
Protocol: Selected compounds of the present invention are evaluated for their effect on cell proliferation. Malignant MCF-7 cells are cultured in DMEM nutrient mix F12 (HAM) medium which is supplemented with 10% heat inactivated FCS, glutamine (2 mM), penicillin (100 units/mL) and streptomycin (0.1 mg/mL). The cultures are maintained at 37° C. in an atmosphere of humidified air containing 5% CO2. The MCF-7 cells are seeded at approximately 5×10^3 cells/well in the DMEM modified medium in a 96-well microtiter plate. […] Finally, 1 μCi of [^3H]thymidine is added to each well and the cells are harvested after a further 4 hour incubation period. The cells are harvested with a Parckard Harvester and the cell count measured by a Packard Topcount System.

[1] = molecular target: T1, Human Vitamin D Binding Protein (hDBP) (Homo sapiens, UniProt P02774); assay: Affinity for Human Vitamin D Binding Protein (hDBP), displacement of [3H]1α,25(OH)2D3; conditions: relative affinity from concentration displacing 50% of [3H]1α,25(OH)2D3, 1α,25(OH)2D3 assigned 100%, 4° C.
T1 sequence (P02774 17-474): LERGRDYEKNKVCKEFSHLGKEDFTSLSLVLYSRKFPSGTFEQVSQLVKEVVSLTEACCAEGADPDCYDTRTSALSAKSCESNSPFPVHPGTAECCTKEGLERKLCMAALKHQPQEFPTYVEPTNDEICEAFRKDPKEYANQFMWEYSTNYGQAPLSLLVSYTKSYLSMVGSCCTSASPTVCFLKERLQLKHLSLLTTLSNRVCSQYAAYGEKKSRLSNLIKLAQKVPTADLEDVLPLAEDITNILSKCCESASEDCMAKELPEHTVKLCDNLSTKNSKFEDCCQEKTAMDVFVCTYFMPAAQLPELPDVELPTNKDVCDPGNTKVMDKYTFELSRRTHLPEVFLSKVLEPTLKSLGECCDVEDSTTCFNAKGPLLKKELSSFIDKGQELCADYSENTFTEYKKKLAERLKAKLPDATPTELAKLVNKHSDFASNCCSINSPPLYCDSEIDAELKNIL
Protocol: The solution is incubated for 3 hours at 4° C. Final phase separation is obtained by adding 0.5 mL of cold destran-coated charcoal.

HL-60 cells = assay: Promyelocytic leukemia cells (HL-60), differentiation markers (NBT reduction assay); type: cell-based; conditions: relative to control 1α,25(OH)2D3 = 100
Protocol: Selected compounds of the present invention are evaluated for their effect on cell proliferation. Falcon tissue chambers are seeded with 4×10^4 cells/cm^2 of HL-60 cells using RPMI 1640 medium supplemented with 20% FCS and gentamycin (50 μg/mL) in a final cell volume of 5 mL. The cultures are maintained at 37° C. in an atmosphere of humidified air containing 5% CO2. […] After 4 days, the dishes are shaken to lose adherent cells. The cells are then washed twice in RPMI medium, counted, and then assayed for differentiation markers (NBT reduction assay). Superoxide production is measured as NBT reducing activity as described by Ostrem. V. K et al. Proc Natl Acad Sci USA,. 1987 84: 2610-2614. HL-60 cells at 1×10^6/mL are mixed with an equal volume of freshly prepared solution of phorbol 12-myristate 13-acetate (200 ng/mL) and NBT ([…]) and incubated for 30 minutes at 37° C. The percentage of cells containing black formazan deposits is determined using a hemacytometer.

Vitamin D Receptor (VDR) = molecular target: T2, Vitamin D Receptor (VDR) (Sus scrofa, UniProt A3RGC1); conditions: relative affinity from concentration displacing 50% of [3H]1α,25(OH)2D3; 1α,25(OH)2D3 assigned 100%; 4° C., 20 hours
T2 sequence (A3RGC1 1-427): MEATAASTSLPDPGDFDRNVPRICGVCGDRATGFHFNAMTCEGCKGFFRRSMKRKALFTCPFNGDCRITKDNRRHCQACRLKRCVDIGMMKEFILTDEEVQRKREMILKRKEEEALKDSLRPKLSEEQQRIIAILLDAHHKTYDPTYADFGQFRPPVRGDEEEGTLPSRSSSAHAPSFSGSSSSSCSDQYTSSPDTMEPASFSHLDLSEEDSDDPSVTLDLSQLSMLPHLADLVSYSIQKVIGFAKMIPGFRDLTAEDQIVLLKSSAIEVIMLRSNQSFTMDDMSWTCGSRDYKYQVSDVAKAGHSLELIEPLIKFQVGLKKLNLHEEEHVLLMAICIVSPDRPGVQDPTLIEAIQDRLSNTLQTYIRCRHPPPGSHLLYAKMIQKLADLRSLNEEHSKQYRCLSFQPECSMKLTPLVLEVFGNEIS

[2] = In vivo determination of calcium levels (serum calcium, femur calcium); parameters: species or system NMRI mice; conditions: for Femur Ca: NMRI mice, IP daily for 7 consecutive days
Description: . Table VII presents the serum and femur calcium levels in mice after intraperitoneal injections after 7 consecutive days.

SMILES	MCF-7 (MCF-7 cells)	hDBP binding % [1]	HL-60 (HL-60 cells)	VDR binding % (Vitamin D Receptor (VDR))	Femur Ca ([2]; 0.1 μg/kg/d)	Femur Ca ([2]; 0.2 μg/kg/d)	Femur Ca ([2]; 0.4 μg/kg/d)	estimated serum calcium ([2]; as compared with 1α,25(OH)2D3 (control assigned 100%), mice, IP daily, 7 consecutive days)	less calcemic than the control ([2]; mouse, in vivo)	estimated serum calcium ([2]; mouse, in vivo, ip)
CC(C)(O)CCCC1CCC2(CCC/C(=C/C=C3C[C@@H](O)C[C@H](O)C3)C2)C1 (stereo in doubt) [(1R,3R)-5-{2-[(2S, 5R)-2-(4-hydroxy-4-methylpentyl)-spiro[4.5]dec-(7Z)-ylidene]-ethylidene}-cyclo-hexane-1,3-diol]	8	3%	0.9	0.4%	–	–	–	–	–	–
C=C1/C(=C\C=C2/CCC[C@]3(C)[C@@H]([C@H](C)CCCC(C)(C)O)CC[C@@H]23)C[C@@H](O)C[C@@H]1O [1α,25(OH)2D3, 1α,25-dihydroxyvitamin D3]	–	–	100	–	10.9 mg	10.3 mg	8.9 mg	100%	–	–
CC(C)(O)CCC[C@H]1CC[C@]2(CCC/C(=C\C=C3C[C@@H](O)C[C@H](O)C3)C2)C1 [(1R,3R)-5-{2-[(2R,5S)-2-(4-Hydroxy-4-methyl-pentyl)-spiro[4.] [(1R,3R)-5-{(E)-(2R,5S))-2-[2-(4-hydroxy-4-methylpentyl)-spiro[4.5]dec-7-ylidene]-ethylidene}-cyclohexane-1,3-diol]	9	0%	4	0.4%	–	–	–	–	–	–
CC(C)(O)CCC[C@H]1CC[C@]2(CCC/C(=C\C=C3C[C@@H](O)C[C@H](O)C3)C2)C1 [(1R,3R)-5-{2-[(2S,5R)-2-(4-Hydroxy-4-methyl-pentyl)-spiro[4.] [(1R,3R)-5-{2-[(2S,5R)-2-(4-hydroxy-4-methyl-pentyl)-spiro[4.5]dec-(7E)-ylidene]-ethylidene}-cyclohexane-1,3-diol]	50	3%	10	0.8%	–	–	–	–	–	–
CC(C)(O)CCC[C@H]1CC[C@@]2(CCC/C(=C\C=C3C[C@@H](O)C[C@H](O)C3)C2)C1 [(1R,3R)-5-{2-[(2S,5S)-2-(4-Hydroxy-4-methyl-pentyl)-spiro[4.5]dec-(7E)-ylidene]-ethylidene}-cyclo-hexane-1,3-diol]	20	0%	8	0.7%	–	–	–	–	–	–
CC(C)(O)CCC[C@H]1CC[C@@]2(CCC/C(=C/C=C3C[C@@H](O)C[C@H](O)C3)C2)C1 [(1R,3R)-5-{2-[(2S,5S)-2-(4-Hydroxy-4-methyl-pentyl)-spiro[4.5]dec-(7Z)-ylidene]-ethylidene}-cyclo-hexane-1,3-diol]	3	0%	0.5	0%	–	–	–	–	–	–
CC(C)(O)CCC[C@@H]1CC[C@]2(CCC/C(=C\C=C3C[C@@H](O)C[C@H](O)C3)C2)C1 [(1R,3R)-5-{(E)-(2R,5R))-2-[2-(4-hydroxy-4-methylpentyl)-spiro[4.5]dec-7-ylidene]-ethylidene}-cyclohexane-1,3-diol]	450	3%	200	10%	–	–	–	–	approximately 200 times	0.5%
CC(C)(O)CCC[C@@H]1CC[C@]2(CCC/C(=C/C=C3C[C@@H](O)C[C@H](O)C3)C2)C1 [(1R,3R)-5-{(Z)-(2R,5R))-2-[2-(4-hydroxy-4-methylpentyl)-spiro[4.5]dec-7-ylidene]-ethylidene}-cyclohexane-1,3-diol]	75	3%	8	0.8%	–	–	–	–	–	–
CC(C)(O)CCC[C@H]1CC[C@]2(CCC/C(=C/C=C3C[C@@H](O)C[C@H](O)C3)C2)C1 [(1R,3R)-5-{(Z)-(2R,5S))-2-[2-(4-hydroxy-4-methylpentyl)-spiro[4.5]dec-7-ylidene]-ethylidene}-cyclohexane-1,3-diol]	4	0%	<1	0%	–	–	–	–	–	–
